Source: US12202834B2, “Solid state forms of oclacitinib maleate” (VationPharma B.V., priority 2019, dated 2025)
Values joined by “and” are separate entries in the source; they are usually repeats but may differ in a detail not shown here. Identical values can stand only once. Counter-ions that a name gives are not always drawn.

Legend:
Assay type in all cases: physicochemical
[1] = Thermodynamic solubility test (saturated solution, gravimetric); details: for Solubility, Average: average of three determinations; for Solubility compared to oclacitinib maleate form A: form A normalized to 100% (FIG. 16); for Solubility: single determination, saturated solution, 15 minutes stirring (600 rpm), 15 minute equilibrium, 0.2 μm filter
Description: The thermodynamic solubility of different forms of oclacitinib maleate was tested by generating a saturated solution for each form (i.e. oclacitinib maleate form A, amorphous oclacitinib maleate and monohydrate form of oclacitinib maleate). After 15 minutes of stirring (600 rpm) and further 15 minute of an equilibrium phase the solution was filtrated over an 0.2 μm syringe filter into a vial with a known weight.
Subsequently, the solvent was allowed to evaporate and the vial was then weighted again.

[2] = Stability tests of solid forms (storage, solid form analysed by XRPD); details: for Relative humidity at which the solid form is stable / can be stored: general statement in description
Description: The stability of the solid forms of oclacitinib obtained was tested at three different conditions, i.e. storage at 25° C. at 0% relative humidity, 40° C. at 75% rH and 25° C. at 100% rH. Alternatively or additionally, the stability of the solid forms of oclacitinib obtained was tested at 25° C. at 25% rH.

[3] = Hygroscopicity of solid state form; details: general statement in description
[4] = relatively high humidity, 25° C. at 100% rH
[5] = relatively high humidity, 40° C. at 75% rH
[6] = relatively low humidity, 25° C. at 0% rH

| SMILES | Solubility, Average [1] | Solid form found after storage ([2]; 25° C./0% rH, Week 1) | Solid form found after storage ([2]; 25° C./0% rH, Week 4) | Solid form found after storage ([2]; 25° C./100% rH, Week 1) | Solid form found after storage ([2]; 25° C./100% rH, Week 4) | Solid form found after storage ([2]; 40° C./75% rH, Week 1) | Solid form found after storage ([2]; 40° C./75% rH, Week 4) | Solubility [1] | further results |
| --- | --- | --- | --- | --- | --- | --- | --- | --- | --- |
| CNS(=O)(=O)C[C@H]1CC[C@H](N(C)c2ncnc3[nH]ccc23)CC1 [Amorphous, amorphous oclacitinib maleate] | 37.834 mg/mL |  |  |  |  |  |  | 37.095 mg/mL and 37.430 mg/mL and 38.976 mg/mL | Solubility compared to oclacitinib maleate form A ([1]; listed as amorphous form of oclacitinib maleate): more than twice as soluble |
| CNS(=O)(=O)C[C@H]1CC[C@H](N(C)c2ncnc3[nH]ccc23)CC1 [oclacitinib maleate form B] |  | Form B | Form A | Form B | Form B | Form B | Form B |  | Solid form found after storage ([2]; 25° C./0% rH, Week 12): Form A; Solid form found after storage ([2]; 25° C./100% rH, Week 12): Form B; Solid form found after storage ([2]; 40° C./75% rH, Week 12): Form B; Relative humidity at which the solid form is stable / can be stored [2]: at least 30%; Stability of solid form [2, 4]: is stable; Stability of solid form [2, 5]: is stable; Stability of solid form [2, 6]: converses into oclacitinib maleate form A; Hygroscopicity [3]: non-hygroscopic |
| CNS(=O)(=O)C[C@H]1CC[C@H](N(C)c2ncnc3[nH]ccc23)CC1 [tetramethyl urea solvate form of oclacitinib maleate] |  | TMU solvate | TMU solvate | Form B | Form B | Form B | Form B |  | Solid form found after storage ([2]; 25° C./0% rH, Week 12): TMU solvate; Solid form found after storage ([2]; 25° C./100% rH, Week 12): Form B; Solid form found after storage ([2]; 40° C./75% rH, Week 12): Form B; Stability of solid form [2, 4]: converses into oclacitinib maleate form B; Stability of solid form [2, 5]: converses into oclacitinib maleate form B; Stability of solid form [2, 6]: is stable |
| CNS(=O)(=O)C[C@H]1CC[C@H](N(C)c2ncnc3[nH]ccc23)CC1 [example 9, amorphous oclacitinib maleate] |  |  |  |  |  |  |  |  | Change of solid state on storage (XRPD) ([2]; 25° C. at 25% rH, 3 weeks): mixture (upper graph) comprising amorphous oclacitinib maleate and oclacitinib maleate form A |
| CNS(=O)(=O)C[C@H]1CC[C@H](N(C)c2ncnc3[nH]ccc23)CC1 [example 8, amorphous oclacitinib maleate] |  |  |  |  |  |  |  |  | Change of solid state on storage (XRPD) ([2]; 25° C. at 0% rH, after 2 weeks): remains stable; Change of solid state on storage (XRPD) ([2]; 25° C. at 25% rH, 3 weeks): does not show any change of solid state; Change of solid state on storage (XRPD) ([2]; 25° C. at 100% rH, after 2 weeks): conversion (intermediate graphs) of the amorphous phase to the monohydrate form of oclacitinib maleate; Change of solid state on storage (XRPD) ([2]; 40° C. at 75% rH, after 2 weeks): conversion (intermediate graphs) of the amorphous phase to the monohydrate form of oclacitinib maleate |

Continued, in another order:

| Solubility, Average [1] | Solid form found after storage ([2]; 25° C./0% rH, Week 1) | Solid form found after storage ([2]; 25° C./0% rH, Week 4) | Solid form found after storage ([2]; 25° C./100% rH, Week 1) | Solid form found after storage ([2]; 25° C./100% rH, Week 4) | Solid form found after storage ([2]; 40° C./75% rH, Week 1) | Solid form found after storage ([2]; 40° C./75% rH, Week 4) | SMILES | Solubility [1] | further results |
| --- | --- | --- | --- | --- | --- | --- | --- | --- | --- |
| 8.994 mg/mL | Monohydrate | Monohydrate | Monohydrate | Monohydrate | Monohydrate | Monohydrate | CNS(=O)(=O)C[C@H]1CC[C@H](N(C)c2ncnc3[nH]ccc23)CC1 [monohydrate form of oclacitinib maleate] | 9.053 mg/mL and 9.047 mg/mL and 8.884 mg/mL | Stability of solid form ([2]; all three storage conditions (25° C./0% rH, 40° C./75% rH, 25° C./100% rH)): stable under all storage conditions; Stability of solid state with respect to relative humidity, in words ([2]; low (<50% rH) and high (>50% rH) relative humidity): stable by any relative humidity of the surrounding air; Solubility compared to oclacitinib maleate form A [1]: halved |
| 17.135 mg/mL |  |  |  |  |  |  | CNS(=O)(=O)C[C@H]1CC[C@H](N(C)c2ncnc3[nH]ccc23)CC1 [Form A, N-methyl(4-(methyl(7H-pyrrolo[2,3-d]pyrimidin-4-yl)amino)cyclohexyl)methanesulfonamide maleic acid salt, reference compound] | 16.914 mg/mL and 16.690 mg/mL and 17.802 mg/mL | Relative humidity at which the solid form is stable / can be stored ([2]; listed as oclacitinib maleate form A): at most 30% |
